# In paper PMC6533572, “Elucidation of the Differences in Cinobufotalin’s Pharmacokinetics Between Normal and Diethylnitrosamine-Injured Rats: The Role of P-Glycoprotein” (Frontiers in Pharmacology, 2019):
# Values joined by “and” are separate entries in the source; they are usually repeats but may differ in a detail not shown here. Equal values may be shown once. Read-outs that look alike come from different tables or passages of the source.
# How the values were obtained:
# CYP3A4 = tested on: CYP3A4; parameters: method as in Han et al., 2016; conditions: especially mediated by CYP3A4; ref Han et al., 2016; cited from earlier work
# [1] = Pharmacokinetic study after i.v. injection in normal and DEN-injured rats; type: in vivo, Sprague Dawley rats; conditions: i.v. 2.5 mg/kg, two-compartment model; for AUC / C0 / clearance / half-life: male, Sprague Dawley, rat, plasma, iv; for half-life: read-out: t1/2β (converted)
# Protocol: Male Sprague Dawley rats (200–220 g), used for pharmacokinetic (PK) studies, were purchased from Beijing Vital River Laboratory Animal Technology Co., Ltd. (Beijing, China). All animals were housed under standardized condition (12 h light/dark schedule), and they were kept 1 week prior to experiments for acclimation. All animal experiments were carried out in accordance with the National Institutes of Health guide for the care and use of Laboratory animals (NIH Publications No. 8023, revised 1978) and were approved by the Medical and Research Ethics Committee of College of Medicine, Henan University.
# For PK studies, the rats were randomly divided into two experimental groups (10 rats for normal rats group and 20 rats for DEN-injured rats group, considering the animal casualties during the modeling process). HCC rat model was established by intraperitoneal administration of 50 mg/kg DEN two times per week ([Fuchs et al., 2014]), and the control group rats were treated with normal saline in the same way. After 14 weeks of administration, three rats were randomly selected and anesthetized by anesthesia cocktail (Ketamine 50 mg/mL, Xylazine 3.3 mg/mL and Acetopromazine 3.3 mg/mL). Then the liver was taken out and photographed to determine whether the animal model was successfully constructed.
# Before PK experiment, a cannula was introduced into the jugular vein of the anesthetized rat and administrated carprofen subcutaneously after the surgery. After observation for 24 h, when the activity and excretion of rats were normal, rats were dosed with cinobufotalin at 2.5 mg/kg through jugular vein cannula. Blood samples (200 μL) were withdrawn at each pointed time (5, 10, 15, 30, 45 min, and 1, 1.5, 2, 4, 6, 8, 12, and 24 h) after dosing, and whole blood was transferred into tubes pre-treated with heparin (1000 U/mL). Then an equal volume of saline was injected into rats through jugular vein cannula immediately. The blood samples were immediately centrifuged at 4°C (8000 g, 10 min) to obtain the plasma, and the plasma samples were stored at -80°C until analysis. After sampling at the last time point, all rats were anesthetized immediately. Blood was washed out with ice-cold saline through the hepatic portal vein, and then liver tissues were removed, weighed and stored at -80°C until analysis.
# Hundred microliter of plasma was transferred to a new clean tube, and samples were treated with protein precipitation assay as described in Preparation of rat plasma samples section. Then calibration curve was prepared to quantify the amount of cinobufotalin in plasma samples according to the steps as described in method validation part.
# PK and statistical data analyses were performed using WinNonlin 3.3. The two-compartment model (two-compartment i.v.-Bolus, macro-constants, no lag time, first order elimination, Figure 2) was selected to obtain the PK parameters of cinobufotalin in rats. The model equation was as followed:
# (3) C(t)=A∗EXP(−Alpha∗t)+B∗EXP(−Beta∗t)
# HepG2 cells = test: Cell viability CCK-8 assay, HepG2 cells; type: cell-based; conditions: Homo sapiens, 40 nM, 60 nM and 80 nM, 24 h, read-out: inhibition of HepG2 cells growth (CCK-8)
# Protocol: Hepatocellular cancer cells (HepG2 and Huh-7) were purchased from the cell bank of the Chinese Academy of Science (Shanghai, China). These cells were cultured in Dulbecco’s modified Eagle’s medium (DMEM) containing 10% fetal bovine serum (FBS), penicillin (100 units/mL) and streptomycin (100 units/mL) in a humidified atmosphere with 5% CO2 at 37 °C.
# Furthermore, the effect of cinobufotalin at 40, 60, 80 nM on hepatocellular cancer cells (HepG2 and Huh-7 cells) viability was conducted using Cell Counting Kit - 8 (CCK-8) assay (Sigma-Aldrich, St Louis, MO). In brief, cells were seeded into 96-well plates at 5 × 10^3 cells/well and cultured for 24 h in DMEM medium as described in 1.1 section. Then various concentrations of cinobufotalin (40, 60, 80 nM) were added into cells. After 24 h treatment, 10 μL of CCK-8 solution was added into every well of the plate. The plate was incubated in the incubator for other 4 h, and then the absorbance was measured at 450 nm using a microplate reader (Thermo Scientific, Rockford, IL). The cell viability was calculated by the formula: cell viability (100%) = (OD value of the treated wells - OD value of the blank control wells) / (OD value of the negative control wells - OD value of the blank control wells).
# MDCK II cells = test: Cellular uptake (intracellular accumulation) in MDCK II cells; type: in vitro ADME, canine; conditions: verapamil 100 μM, 2 h
# Protocol: Madin Darby canine kidney (MDCK II) cells stably transfected with multidrug resistance 1 gene (MDCK-MDR1 cells) were conducted and used in cinobufotalin uptake studies. Wild type MDCK II or MDCK-MDR1 cells were seeded into six-well plates at the destiny of 2 × 10^5 cells/well and maintained at 37°C under 5% CO2 in DMEM with 10% FBS. The well-known P-gp inhibitor, verapamil (100 μM), was used as the positive control to evaluate the effect of P-gp on cinobufotalin uptake ([Bicker et al., 2017]).
# The uptake experiment was performed when the cells reached 100% confluency. First, cells were washed three times using 37°C Hanks’ balanced salt solution (HBSS) buffer (pH = 7.2). Then, 2 mL HBSS (37°C, pH = 7.2) buffer containing cinobufotalin (5 and 20 μM) were added and incubated with cells in the absence or presence of potential P-gp inhibitors, verapamil (100 μM). After incubation for 2 h, the incubation medium was removed, and cells were washed three times using ice-cold HBSS buffer. Then 400 μL of ice-cold MeOH:H2O (1:1, v/v) were added into each well, the cells were collected and sonicated for 15 min in ice-cold water. The mixture was centrifuged at 4°C (12,000 g, 10 min), and the supernatant was subjected to UPLC-QTOF/MS for analyses.
structure (smiles),measurement,setting,value
CC(=O)O[C@H]1[C@H]2O[C@]23[C@@H]2CC[C@]4(O)C[C@@H](O)CC[C@]4(C)[C@H]2CC[C@]3(C)[C@H]1c1ccc(=O)oc1 [Cinobufotalin],metabolic pathways in human liver microsomes,CYP3A4,undergo hydroxylation and dehydrogenation
same,CL2,[1]; DEN-injured rats,135 ± 28.3 mL/min/kg
same,K10,[1]; DEN-injured rats,1.0 ± 0.3^* 1/h
same,K21,[1]; DEN-injured rats,0.3 ± 0.1 h⁻¹
same,V,[1]; DEN-injured rats,2.4 ± 0.6 L/kg
same,V2,[1]; DEN-injured rats,31.5 ± 10.4 L/kg
same,K12,"[1]; DEN-injured rats, 2.5 mg/kg",3.2 ± 0.8 h⁻¹
same,t1/2α,"[1]; DEN-injured rats, 2.5 mg/kg",0.2 ± 0.1 h
same,AUC,"[1]; 2.5 mg/kg, DEN-injured rats",1100 ± 300 ng·h/mL
same,C0,"[1]; 2.5 mg/kg, DEN-injured rats",1100 ± 300 ng/mL
same,clearance,"[1]; 2.5 mg/kg, DEN-injured rats",40 mL/min/kg
same,half-life,"[1]; 2.5 mg/kg, DEN-injured rats",13.4 ± 5.8 h
same,AUC,"[1]; 2.5 mg/kg, normal rats",2600 ± 500 ng·h/mL
same,C0,"[1]; 2.5 mg/kg, normal rats",1400 ± 400 ng/mL
same,clearance,"[1]; 2.5 mg/kg, normal rats",16.7 mL/min/kg
same,half-life,"[1]; 2.5 mg/kg, normal rats",13.2 ± 1.3 h
same,CL2,[1]; normal rats,55 ± 6.7 mL/min/kg
same,K10,[1]; normal rats,0.5 ± 0.2 h⁻¹
same,K21,[1]; normal rats,0.3 ± 0 h⁻¹
same,V,[1]; normal rats,2.1 ± 0.6 L/kg
same,V2,[1]; normal rats,13.1 ± 1.3 L/kg
same,t1/2α,[1]; normal rats,0.3 ± 0.1 h
same,K12,"[1]; normal rats, 2.5 mg/kg",1.8 ± 0.5 h⁻¹ and 1.8 ± 0.8 h⁻¹
same,inhibition at 0.04 µM,HepG2 cells,< 15%
same,effect of verapamil on the intracellular accumulation of cinobufotalin,MDCK II cells,did not alter
